From US20170202845A1, “PROPHYLACTIC OR THERAPEUTIC AGENT FOR A POSTERIOR OCULAR DISEASE” (SANTEN PHARMACEUTICAL CO., LTD., priority 2014, published 2017)

System: choroidal neovascularization
Test: laser-induced rat choroidal neovascularization model
Type: in vivo
Protocol: Usefulness of the present compounds was evaluated using a laser-induced rat choroidal neovascularization model (Invest. Ophthalmol. Vis. Sci., 40(2), 459-466 (1999)).
A rat was generally anesthetized by intramuscular administration of 1 mL/kg of a mixed solution (7:1) comprising a 5% (W/V) ketamine hydrochloride injection solution and a 2% xylazine hydrochloride injection solution. 0.5% (W/V) Tropicamide-0.5% phenylephrine hydrochloride eye drop was dropped into eyes for mydriasis, and photocoagulation was carried out with a krypton laser photocoagulation apparatus. […]
At the 7th day after the photocoagulation, the rat was generally anesthetized by intramuscular administration of 1 mL/kg of a mixed solution (7:1) comprising a 5% (W/V) ketamine hydrochloride injection solution and a 2% xylazine hydrochloride injection solution. […] The spot of photocoagulation with no leakage of fluorescence detected by fluorescein fundus angiography was judged as negative (no neovascularization), and the spot of photocoagulation with leakage of fluorescence was judged as positive. The spot of photocoagulation with slight leakage of fluorescence was judged as positive (neovascularization exists) when 2 or more spots of such a state were detected in one eye. […]

**Q.** Which results are given for `CC(=O)N[C@@H]1C[C@H](NC(C)(C)C)CC[C@@H]1N1CC[C@H](Nc2ncnc3cc(C(C)(C)C)nn23)C1=O` [Compound 1b, N-((1R,2S,5R)-5-(tert-butylamino)-2-((S)-3-(7-tert-butylpyrazolo[1,5-a][1,3,5]triazin-4-ylamino)-2-oxopyrrolidin-1-yl)cyclohexyl)acetamide]?
**A.** Suppressing rate (%) (krypton laser-induced rat choroidal neovascularization, 100 mg/kg orally twice a day for 7 days, fluorescein fundus angiography at 7th day, relative to base administered group): 66.6%; inhibition of choroidal neovascularization (in words) (laser-induced rat choroidal neovascularization model animal): inhibit choroidal neovascularization
